Like-named read-outs stand apart in the source and are kept apart here.
Columns and labels:
[1] = system: Wnt/β-catenin signaling pathway; assay: Western-Blot of Wnt/β-catenin pathway proteins and P-gp in hCMEC/D3 cells treated with IWP-O1; type: cell-based, human
Procedure: The hCMEC/D3 cells were purchased from iCell Bioscience Inc. (Shanghai, China) and cultured in RPMI 1640 medium containing 1% penicillin–streptomycin liquid (Solarbio, Beijing, China) and 10% fetal bovine serum (Tianhang, Zhejiang, China) in the same environment as that of Caco-2 cells. The hCMEC/D3 cells were seeded at a density of 6 × 10^4 cells/cm^2 and cultured for 2 days under normal gravity. The flasks were then filled with culture medium and exposed to SMG using random speed 3D clinostat for 24, 48, and 72 h. The hCMEC/D3 cells in the CON group were cultured under normal gravity in the same CO2 incubator.
(§1) FzM1.8 and IWP-O1 (Wnt/β-catenin signaling pathway-specific agonist and inhibitor, respectively) were dissolved in dimethyl sulfoxide (DMSO) and diluted with culture medium to obtain the desired concentrations. The final concentration of DMSO was 0.1%. FzM1.8 (2 μM) was added to the Caco-2 cells in the CON + FzM1.8 and SMG + FzM1.8 groups. IWP-O1 (1 nM) was added to the hCMEC/D3 cells in the CON + IWPO-1 and SMG + IWPO-1 groups. The cells in the SMG, SMG + FzM1.8, or SMG + IWPO-1 group were then exposed to SMG for 48 h.
(§2) Total proteins in the rat ileum mucosa and brain and Caco-2 and hCMEC/D3 cells were extracted using radio immunoprecipitation assay buffer containing protease inhibitors and protein phosphatase inhibitors. The supernatant was collected after centrifugation (12,000× g, 4 °C, and 10 min). The protein concentration was tested using Coomassie brilliant blue staining. The supernatant was mixed with 4× protein loading buffer containing dithiothreitol (Solarbio, Beijing, China) and […] in a boiling water bath for 10 min. […] The gray value of each band was collected using Image Lab^TM Software (version 3.0, Bio-Rad, Hercules, CA, USA), and the relative expression levels of proteins were expressed as the ratio of the gray value of the target band to the total proteins in the same lane.

[2] = cited from earlier work
[3] = Rat brain distribution of acetaminophen (Kp brain); type: in vivo; conditions: AP 1.2 g/kg oral, post-oral administration
Procedure: After 7 or 21 days of tail suspension, all rats were orally administered AP (1.2 g/kg). […] Rat brains were rapidly removed after perfusion with prechilled saline from rat hearts. Then, 0.1 mL of plasma from each rat was used to precipitate proteins with 300 μL of methanol. Approximately 0.1 g of the brain tissue of each rat was homogenized and ultrasonicated in 1 mL of methanol. The supernatant was removed and dried via vacuum centrifugation and reconstituted with methanol for HPLC. The brain distribution of AP was evaluated as the ratio of AP content in brain tissue (μg/g) to that in plasma (μg/mL).
(§3) HPLC was performed on a Shimadzu LC-20AT HPLC system equipped with a UV detector (Shimadzu, Kyoto, Japan). Sample separation was conducted in a C18 column (5 μm, 4.6 × 150 mm). The mobile phases were methanol (A) and water (B) (1:9, v:v), and the flow rate was 1 mL/min. The volume of each sample injected into the HPLC system was 10 μL. The column temperature was maintained at 25 °C, and the detection wavelength was 275 nm. Ferulic acid (final concentration of 100 μg/mL) was used as an IS.

[4] = parameters: method as in earlier work; conditions: 21 and 28 days of SMG treatment in rats; cited from earlier work
rat ileum = assay: Rat single-pass intestinal perfusion (SPIP) of acetaminophen; type: in vivo; conditions: for Ka / Peff / Concentration: SPIP of ileum; for Concentration: perfusate 2.5 mg/mL AP
Procedure: At 1 h post-oral administration, all rats were anesthetized with urethane (1.75 g/kg) and placed in a supine position. Approximately 10 cm of ileum was separated from the intestinal segments. Tubes were carefully inserted at both ends of this segment and ligated with a sterile surgical line. The segment was rinsed with 37 °C Krebs–Ringer’s (KR) solution, balanced with KR solution (containing 2.5 mg/mL AP) at a flow rate of 0.2 mL/min for 15 min, and continuously perfused with KR solution (containing 2.5 mg/mL AP). The flow rate was set as 0.2 mL/min. The outflow perfusate was collected in a pre-weighed tube, which was changed quickly every 15 min and weighed. Six tubes of this fluid were collected for each rat. The perfusion solution and outflow perfusate were diluted in methanol–water (1:9, v:v) and analyzed using HPLC.
as §3

[5] = system: Wnt/β-catenin signaling pathway; assay: Western-Blot of Wnt/β-catenin pathway proteins and P-gp in Caco-2 cells treated with FzM1.8; type: cell-based, human
Procedure: Caco-2 cells were purchased from the Chinese Academy of Sciences (Shanghai, China) and maintained in MEM/EBSS medium (Hyclone, UT, USA) supplemented with 10% fetal bovine serum (Sofar, Beijing, China), 1% penicillin–streptomycin liquid (Solarbio, Beijing, China), and 1% nonessential amino acids (Gibco, New York, NY, USA) in a humidified 5% CO2 atmosphere at 37 °C. The Caco-2 cells were seeded in a T-12.5 flask (2 × 10^4 cells/cm^2) and cultured for 21 days under normal gravity. The T-12.5 flask was filled with culture medium while preventing bubble formation and then exposed to SMG using random speed 3D clinostat (National Space Science Center, Beijing, China) for 12, 24, 48, and 72 h. The Caco-2 cells in the CON group were cultured under normal gravity in the same CO2 incubator.
as §1, §2

P-gp [6] = assay: Intracellular Rho123 fluorescence intensity in hCMEC/D3 cells (P-gp efflux function); type: cell-based, human; conditions: Rho123 2 μM for 0.5 h
Procedure: The cells were then washed with phosphate buffer saline (PBS) solution five times (2 mL each time) and treated with 2 mL of 0.1% Triton X-100 for 15 min. The cell solution was transferred to a black 96-well plate (Corning, NY, USA) with six wells in each group and 200 μL in each well after brief centrifugation. The fluorescence intensity of each well was detected using a microplate reader (BioTek, Thorold, ON, Canada). The excitation/emission wavelength of Rho123 was 485/535 nm. After 24, 48, or 72 h of SMG treatment, the hCMEC/D3 cells were treated with 2 mL of medium containing Rho123 (2 μM) for 0.5 h. Subsequent operations were performed in the same way as for Caco-2 cells.

P-gp [7] = assay: Ratio of Rho123 concentration in rat brain and blood (P-gp efflux function in rat brain); type: in vivo; conditions: Rho123 0.5 mg/kg tail vein, 15 min post-injection
Procedure: After 45 min, the tail veins of all rats were injected with Rho123 (0.5 mg/kg, Solarbio, Beijing, China). At 15 min post-injection, all rats were anesthetized with chloral hydrate (350 mg/kg), and the blood was collected from the heart. After being subjected to transcardiac perfusion using the stroke-physiological saline solution from the heart, the brain samples of all rats were collected. In summary, 0.1 g of brain samples were homogenized with 0.4 mL of normal saline to obtain brain homogenate. Blank plasma and brain samples were collected from rats without a Rho123 injection and used to prepare Rho123 standard curve samples. The concentration of Rho123 in plasma and brain homogenate from all rats was detected by fluorescence intensity (λ excitation/λ emission = 485/535) using a microplate reader (BioTek, Thorold, ON, Canada). The Kp brain of Rho123 was used to evaluate P-gp efflux function.

[8] = 7 days CON + Ver (30 mg/kg oral) rats
[9] = 21 days CON + Ver (30 mg/kg oral) rats

For O=C(Cn1nnc(-c2ccncc2)c1-c1ccccc1)Nc1ccc(-c2ccccc2)cn1 [IWP-O1], which “P-gp expression under SMG (Western-Blot)” value ([1]; 1 nM before 48 h SMG, vs SMG group) is on record?
The value was “down-regulate”.

And the “P-gp expression (Western-Blot)” value ([1]; 1 nM, 48 h, vs CON group)?
Its value is “decreased”.

What about the “Wnt/β-catenin signaling pathway (Western-Blot)” value ([1]; 1 nM, 48 h, vs CON group) of the same compound?
Its value is “inhibited”.

With CC(C)Cc1ccc(C(C)C(=O)O)cc1 (stereo not drawn) [ibuprofen] as the compound, how does the “Absorption in humans under SMG” value ([2]; in vivo, po) read?
Its value is “promoted”.

Which “Increase of brain-to-plasma concentration ratio (Kp brain)” value ([3]; 7 days SMG vs CON) does the source give for CC(=O)Nc1ccc(O)cc1 [AP, acetaminophen] here?
The value was “approximately 22.0%”.

What about the “Increase of brain-to-plasma concentration ratio (Kp brain)” value ([3]; 21 days SMG vs CON) of the same compound?
Its value is 40.7%.

And the “Absorption under SMG” value ([2]; 80 days of SMG treatment in humans)?
The value was “promoted”.

What about the Absorption in astronauts ([2]; two astronauts, mission day 2 compared with before the flight) of the same compound?
Its Absorption in astronauts is “increased”.

What about the “Absorption under SMG” value [4] of the same compound?
Its value is “promoted”.

What about the Ka (rat ileum; [8]) of the same compound?
Its Ka is 8.93 ± 0.37 * 10^−2 min^−1.

And the Peff (rat ileum; [8])?
The Peff was 10.77 ± 0.61 * 10^−3 cm/min.

And the Concentration (rat ileum; [8])?
The Concentration was 1.516 ± 0.052 mg/mL.

And the Ka (rat ileum; 7 days CON rats)?
The Ka was 7.75 ± 0.11 10^−2 min^−1.

And the Peff (rat ileum; 7 days CON rats)?
The Peff was 8.86 ± 0.16 10^−3 cm/min.

What about the Concentration (rat ileum; 7 days CON rats) of the same compound?
The Concentration was 1.684 ± 0.015 mg/mL.

And the Ka (rat ileum; 7 days SMG rats)?
The Ka was 8.55 ± 0.21 ** 10^−2 min^−1.

What about the Peff (rat ileum; 7 days SMG rats) of the same compound?
The Peff was 10.11 ± 0.33 ** 10^−3 cm/min.

What about the Concentration (rat ileum; 7 days SMG rats) of the same compound?
The Concentration was 1.571 ± 0.029 mg/mL.

And the “Increase of Ka in rat ileum” value (rat ileum; 7 days SMG vs CON)?
Its value is 10.3%.

What about the “Increase of Peff in rat ileum” value (rat ileum; 7 days SMG vs CON) of the same compound?
The value was 14.1%.

What about the Ka (rat ileum; [9]) of the same compound?
The Ka was 7.44 ± 0.18 ** 10^−2 min^−1.

And the Peff (rat ileum; [9])?
Its Peff is 8.41 ± 0.25 ** 10^−3 cm/min.

What about the Concentration (rat ileum; [9]) of the same compound?
Its Concentration is 1.727 ± 0.025 mg/mL.

And the Ka (rat ileum; 21 days CON rats)?
The Ka was 5.66 ± 0.19 10^−2 min^−1.

And the Peff (rat ileum; 21 days CON rats)?
The Peff was 6.01 ± 0.23 10^−3 cm/min.

What about the Concentration (rat ileum; 21 days CON rats) of the same compound?
Its Concentration is 1.965 ± 0.033 mg/mL.

And the Ka (rat ileum; 21 days SMG rats)?
The Ka was 8.76 ± 0.47 ** 10^−2 min^−1.

What about the Peff (rat ileum; 21 days SMG rats) of the same compound?
The Peff was 10.47 ± 0.76 ** 10^−3 cm/min.

And the Concentration (rat ileum; 21 days SMG rats)?
Its Concentration is 1.54 ± 0.066 mg/mL.

And the “Increase of Ka in rat ileum” value (rat ileum; 21 days SMG vs CON)?
The value was 54.8%.

What about the “Increase of Peff in rat ileum” value (rat ileum; 21 days SMG vs CON) of the same compound?
The value was 74.2%.

For O=C(Nc1cc(O)cc(C(=O)O)c1)Nc1ccc2ccccc2c1 [FzM1.8], which “P-gp expression under SMG (Western-Blot)” value ([5]; 2 μM before 48 h SMG, vs SMG group) is on record?
Its value is “up-regulate”.

What about the “P-gp expression (Western-Blot)” value ([5]; 2 μM, 48 h, vs CON group) of the same compound?
The value was “increased”.

And the “Wnt/β-catenin signaling pathway (Western-Blot)” value ([5]; 2 μM, 48 h, vs CON group)?
The value was “activated”.

Which “Absorption in humans under SMG” value ([2]; oral P-gp substrate drugs, humans under SMG) does the source give for CC(CN1c2ccccc2Sc2ccccc21)N(C)C (stereo not drawn) [promethazine] here?
Its value is “promoted”.

With COC(=O)c1ccccc1-c1c2ccc(=N)cc-2oc2cc(N)ccc12 [Rho123, rhodamine 123] as the compound, how does the “Increase in fluorescence intensity of intracellular Rho123” value (P-gp [6]; 48 h SMG vs CON) read?
Its value is 13.4%.

What about the “Increase in fluorescence intensity of intracellular Rho123” value (P-gp [6]; 72 h SMG vs CON) of the same compound?
The value was 16.7%.

And the “Increase of ratio of Rho123 concentration in rat brain to that in the blood” value (P-gp [7]; 7 days SMG vs CON)?
Its value is 40.5%.

And the “Increase of ratio of Rho123 concentration in rat brain to that in the blood” value (P-gp [7]; 21 days SMG vs CON)?
The value was 173.8%.

Reference: article PMC10049079, “Simulated Microgravity Alters P-Glycoprotein Efflux Function and Expression via the Wnt/β-Catenin Signaling Pathway in Rat Intestine and Brain” (International Journal of Molecular Sciences, 2023)
